Legend:
BTK = target: T1, BTK (Homo sapiens, UniProt Q06187); assay: Cell Degradation: BTK degradation in TMD-8 cells, HTRF assay; format: cell-based; conditions: 6 h treatment, IC50 (DC50) of BTK degradation
T1 construct: High control=Cell group with added DMSO and without compound, indicating microplate readings without BTK degradation; endogenous in cells; host or cells: TMD-8 cells
Method in brief: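 BTK levels read by HTRF (665 vs 620 nm) in lysates of TMD-8 cells after 6 h compound exposure (eight doses, 6-fold steps, 0.2% DMSO). Percent degradation relative to controls; four-parameter curve fitting gave DC50, with Dmax the top degradation.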

HEK-293 cells = assay: HEK-293 Cytotoxicity Assay (CellTiter-Glo); format: cell-based; conditions: Homo sapiens, HEK293, 72 h incubation, CellTiter-Glo luminescence
Method in brief: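 Four-parameter fit of % inhibition gives IC50, from CellTiter-Glo luminescent viability read-out. Cells exposed for 72 h to an 8-point, 4-fold series at 0.2% DMSO.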

T1 sequence (Q06187 whole entry): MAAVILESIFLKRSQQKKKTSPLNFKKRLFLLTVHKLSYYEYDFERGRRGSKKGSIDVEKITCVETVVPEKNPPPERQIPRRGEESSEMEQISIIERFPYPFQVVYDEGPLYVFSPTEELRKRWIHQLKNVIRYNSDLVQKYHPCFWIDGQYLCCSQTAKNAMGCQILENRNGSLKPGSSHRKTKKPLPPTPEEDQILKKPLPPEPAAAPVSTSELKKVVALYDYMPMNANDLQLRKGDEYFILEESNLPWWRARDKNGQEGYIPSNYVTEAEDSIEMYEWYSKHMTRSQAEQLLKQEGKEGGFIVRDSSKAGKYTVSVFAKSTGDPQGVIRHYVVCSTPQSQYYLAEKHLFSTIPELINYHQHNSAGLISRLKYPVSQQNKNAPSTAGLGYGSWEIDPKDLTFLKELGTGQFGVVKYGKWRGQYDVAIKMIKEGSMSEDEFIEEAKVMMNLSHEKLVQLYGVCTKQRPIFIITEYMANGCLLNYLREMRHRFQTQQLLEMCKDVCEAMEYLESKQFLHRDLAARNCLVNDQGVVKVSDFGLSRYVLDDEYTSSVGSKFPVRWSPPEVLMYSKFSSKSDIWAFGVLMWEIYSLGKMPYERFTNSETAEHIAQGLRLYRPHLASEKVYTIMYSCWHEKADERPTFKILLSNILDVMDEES

Compound | DC50 (BTK) [nM] | IC50 (HEK-293 cells) [nM]
Cc1cc(-c2ncnc3[nH]c(-c4ccc(N5CCN(CC6CCN(c7ccc(N8CCC(=O)NC8=O)c(C)c7)CC6)CC5)nc4)cc23)ccc1[C@@H](C)NC(=O)c1nc(C(C)(C)C)no1 [Example 58, (R)-3-(tert-butyl)-N-(1-(4-(6-(6-(4-((1-(4-(2,4-dioxotetrahydropyrimidin-1(2H)-yl)-3-methylphenyl)piperidin-4-yl)methyl)piperazin-1-yl)pyridin-3-yl)-7H-pyrrolo[2,3-d]pyrimidin-4-yl)-2-methylphenyl)ethyl)-1,2,4-oxadiazole-5-carboxamide] | 1.5 | > 10000
Cc1cc(-c2ncnc3[nH]c(-c4c(C)nn(C5CCN(CC6CCN(c7ccc(N8CCC(=O)NC8=O)cc7)CC6)CC5)c4C)cc23)ccc1[C@@H](C)NC(=O)c1nc(C(C)(C)C)no1 [Example 60, (R)-3-(tert-butyl)-N-(1-(4-(6-(1-(1-((1-(4-(2,4-dioxotetrahydropyrimidin-1(2H)-yl)phenyl)piperidin-4-yl)methyl)piperidin-4-yl)-3,5-dimethyl-1H-pyrazol-4-yl)-7H-pyrrolo[2,3-d]pyrimidin-4-yl)-2-methylphenyl)ethyl)-1,2,4-oxadiazole-5-carboxamide] | 0.48 | > 10000
Cc1cc(-c2ncnc3[nH]c(-c4c(C)nn(C5CCN(CC6CCN(c7ccc(N8CCC(=O)NC8=O)c(C)c7)CC6)CC5)c4C)cc23)ccc1[C@@H](C)NC(=O)c1nc(C(C)(C)C)no1 [Example 61, (R)-3-(tert-butyl)-N-(1-(4-(6-(1-(1-((1-(4-(2,4-dioxotetrahydropyrimidin-1(2H)-yl)-3-methylphenyl)piperidin-4-yl)methyl)piperidin-4-yl)-3,5-dimethyl-1H-pyrazol-4-yl)-7H-pyrrolo[2,3-d]pyrimidin-4-yl)-2-methylphenyl)ethyl)-1,2,4-oxadiazole-5-carboxamide] | 0.52 | 9000
Cc1cc(-c2ncnc3[nH]c(-c4c(C)nn(C5CCN(CC6CCN(c7ccc(N8CCC(=O)NC8=O)cc7)CC6)CC5)c4C)cc23)ccc1[C@@H](C)NC(=O)c1noc(C(C)(C)C)n1 [Example 62, (R)-5-(tert-butyl)-N-(1-(4-(6-(1-(1-((1-(4-(2,4-dioxotetrahydropyrimidin-1(2H)-yl)phenyl)piperidin-4-yl)methyl)piperidin-4-yl)-3,5-dimethyl-1H-pyrazol-4-yl)-7H-pyrrolo[2,3-d]pyrimidin-4-yl)-2-methylphenyl)ethyl)-1,2,4-oxadiazole-3-carboxamide] | 0.53 | > 10000
Cc1cc(-c2ncnc3[nH]c(-c4ccc(N5CCN(CC6CCN(c7ccc(N8CCC(=O)NC8=O)c(C)c7)CC6)CC5)nc4)nc23)ccc1[C@@H](C)NC(=O)c1nc(C(C)(C)C)no1 [Example 65, (R)-3-(tert-butyl)-N-(1-(4-(8-(6-(4-((1-(4-(2,4-dioxotetrahydropyrimidin-1(2H)-yl)-3-methylphenyl)piperidin-4-yl)methyl)piperazin-1-yl)pyridin-3-yl)-9H-purin-6-yl)-2-methylphenyl)ethyl)-1,2,4-oxadiazole-5-carboxamide] | 0.6 | > 10000
Cc1cc(-c2ncnc3[nH]c(-c4ccc(N5CCN(CC6CCN(c7ccc(N8CCC(=O)NC8=O)c(C)c7)CC6)CC5)cc4)nc23)ccc1[C@@H](C)NC(=O)c1nc(C(C)(C)C)no1 [Example 67, (R)-3-(tert-butyl)-N-(1-(4-(8-(4-(4-((1-(4-(2,4-dioxotetrahydropyrimidin-1(2H)-yl)-3-methylphenyl)piperidin-4-yl)methyl)piperazin-1-yl)phenyl)-9H-purin-6-yl)-2-methylphenyl)ethyl)-1,2,4-oxadiazole-5-carboxamide] | 0.69 | > 10000
Cc1cc(-c2ncnc3[nH]c(-c4ccc(N5CCN(CC6CCN(c7ccc(N8CCC(=O)NC8=O)cc7)CC6)CC5)cc4)nc23)ccc1[C@@H](C)NC(=O)c1noc(C(C)(C)C)n1 [Example 68, (R)-5-(tert-butyl)-N-(1-(4-(8-(4-(4-((1-(4-(2,4-dioxotetrahydropyrimidin-1(2H)-yl)phenyl)piperidin-4-yl)methyl)piperazin-1-yl)phenyl)-9H-purin-6-yl)-2-methylphenyl)ethyl)-1,2,4-oxadiazole-3-carboxamide] | 1.08 | > 10000
Cc1cc(-c2ncnc3[nH]c(-c4ccc(N5CCN(CC6CCN(c7ccc(N8CCC(=O)NC8=O)c(C)c7)CC6)CC5)nc4)nc23)ccc1[C@@H](C)NC(=O)c1noc(C(C)(C)C)n1 [Example 71, (R)-5-(tert-butyl)-N-(1-(4-(8-(6-(4-((1-(4-(2,4-dioxotetrahydropyrimidin-1(2H)-yl)-3-methylphenyl)piperidin-4-yl)methyl)piperazin-1-yl)pyridin-3-yl)-9H-purin-6-yl)-2-methylphenyl)ethyl)-1,2,4-oxadiazole-3-carboxamide] | 0.21 | > 10000
Cc1cc(-c2ncnc3[nH]c(-c4ccc(N5CCN(CC6CCN(c7ccc(N8CCC(=O)NC8=O)c(C)c7)CC6)CC5)cc4)nc23)ccc1[C@@H](C)NC(=O)c1noc(C(C)(C)C)n1 [Example 73, (R)-5-(tert-butyl)-N-(1-(4-(8-(4-(4-((1-(4-(2,4-dioxotetrahydropyrimidin-1(2H)-yl)-3-methylphenyl)piperidin-4-yl)methyl)piperazin-1-yl)phenyl)-9H-purin-6-yl)-2-methylphenyl)ethyl)-1,2,4-oxadiazole-3-carboxamide] | 1.1 | > 10000

Second part, led by results:

DC50 (BTK) [nM] | Compound | IC50 (HEK-293 cells) [nM]
0.4 | C[C@@H](NC(=O)c1nc(C(C)(C)C)no1)c1ccc(-c2ncnc3[nH]c(-c4ccc(N5CCN(CC6CCN(c7ccc(N8CCC(=O)NC8=O)cc7)CC6)CC5)cc4)cc23)cc1CO [Example 74] | > 10000
0.88 | Cc1c([C@@H](C)NC(=O)c2nc(C(C)(C)C)no2)ccc(-c2ncnc3[nH]c(-c4ccc(N5CCN(CC6CCN(c7ccc(N8CCC(=O)NC8=O)cc7)CC6)CC5)cc4)cc23)c1F [Example 78, (R)-3-(tert-butyl)-N-(1-(4-(6-(4-(4-((1-(4-(2,4-dioxotetrahydropyrimidin-1(2H)-yl)phenyl)piperidin-4-yl)methyl)piperazin-1-yl)phenyl)-7H-pyrrolo[2,3-d]pyrimidin-4-yl)-3-fluoro-2-methylphenyl)ethyl)-1,2,4-oxadiazole-5-carboxamide] | > 10000
1.5 | Cc1cc(-c2ncnc3[nH]c(-c4ccc(N5CCN(CC6CCN(c7ccc(N8CCC(=O)NC8=O)cc7)CC6)CC5)cc4)cc23)c(F)cc1[C@@H](C)NC(=O)c1nc(C(C)(C)C)no1 [Example 79, (R)-3-(tert-butyl)-N-(1-(4-(6-(4-(4-((1-(4-(2,4-dioxotetrahydropyrimidin-1(2H)-yl)phenyl)piperidin-4-yl)methyl)piperazin-1-yl)phenyl)-7H-pyrrolo[2,3-d]pyrimidin-4-yl)-5-fluoro-2-methylphenyl)ethyl)-1,2,4-oxadiazole-5-carboxamide] | > 10000
4.3 | C[C@@H](NC(=O)c1nc(C(C)(C)C)no1)c1ccc(-c2ncnc3[nH]c(-c4ccc(N5CCN(CC6CCN(c7ccc(N8CCC(=O)NC8=O)cc7)CC6)C[C@@H]5C)nc4)cc23)cc1F [Example 80, 3-(tert-butyl)-N-((R)-1-(4-(6-(6-((S)-4-((1-(4-(2,4-dioxotetrahydropyrimidin-1(2H)-yl)phenyl)piperidin-4-yl)methyl)-2-methylpiperazin-1-yl)pyridin-3-yl)-7H-pyrrolo[2,3-d]pyrimidin-4-yl)-2-fluorophenyl)ethyl)-1,2,4-oxadiazole-5-carboxamide] | > 10000
1.5 | Cc1cc(-c2ncnc3[nH]c(-c4ccc(N5CCN(CC6CCN(c7ccc(N8CCC(=O)NC8=O)cc7)CC6)CC5)cc4)cc23)ccc1[C@@H](C)NC(=O)c1noc(C2(C)CC2)n1 [Example 90, (R)-N-(1-(4-(6-(4-(4-((1-(4-(2,4-dioxotetrahydropyrimidin-1(2H)-yl)phenyl)piperidin-4-yl)methyl)piperazin-1-yl)phenyl)-7H-pyrrolo[2,3-d]pyrimidin-4-yl)-2-methylphenyl)ethyl)-5-(1-methylcyclopropyl)-1,2,4-oxadiazole-3-carboxamide] | > 10000
0.6 | Cc1cc(-c2ncnc3[nH]c(-c4ccc(N5CCN(CC6CCN(c7ccc(N8CCC(=O)NC8=O)cc7)CC6)CC5)nc4)cc23)ccc1[C@@H](C)NC(=O)c1noc(C(C)(C)C)n1 [Example 104, (R)-5-(tert-butyl)-N-(1-(4-(6-(6-(4-((1-(4-(2,4-dioxotetrahydropyrimidin-1(2H)-yl)phenyl)piperidin-4-yl)methyl)piperazin-1-yl)pyridin-3-yl)-7H-pyrrolo[2,3-d]pyrimidin-4-yl)-2-methylphenyl)ethyl)-1,2,4-oxadiazole-3-carboxamide] | > 10000
3 | Cc1cc(-c2ncnc3[nH]c(-c4ccc(N5CCN(CC6CCN(c7ccc(N8CCC(=O)NC8=O)cc7)CC6)C[C@H]5C)nc4)cc23)ccc1[C@@H](C)NC(=O)c1nc(C(C)(C)C)no1 [Example 105, 3-(tert-butyl)-N-((R)-1-(4-(6-(6-((R)-4-((1-(4-(2,4-dioxotetrahydropyrimidin-1(2H)-yl)phenyl)piperidin-4-yl)methyl)-2-methylpiperazin-1-yl)pyridin-3-yl)-7H-pyrrolo[2,3-d]pyrimidin-4-yl)-2-methylphenyl)ethyl)-1,2,4-oxadiazole-5-carboxamide] | > 10000
